Reference: US20070054908A1, “Novel pharmaceutical compositions and methods for treating tumors, including drug-resistant tumors” (priority 2005, published 2007)
Marks after values point to notes of the source that are not given here.

Key:
PC-3 (p53, del) = assay: MTT cytotoxicity assay, PC-3; format: cell-based; conditions: Homo sapiens, 96 hr
Description: (§1) To evaluate the cytotoxic activity of the two compounds, human prostate cancer cells (PC-3, LNCaP, and DU145) were plated into 96-well plate and incubated for 96 hr with various concentrations of desired drugs. During the last 2 hr, MTT (3-(4,5-dimethylthiazol-2-yl)-2,5-diphenyltetrazolium bromide) was added and the dark-blue formazan formed in live cells was dissolved in dimethyl sulfoxide and the absorbance was measured with a FLUOstar Optima microplate reader (BMG LABTECH Inc., Durham, N.C.) at 570 nm. The IC50 was defined as the concentration of a drug that inhibited cell growth by 50% (see Dong et al, supra, and Dong Z, et al. “Organ-specific modulation of steady-state mdr gene expression and drug resistance in murine colon cancer cells” J. Natl. Cancer Inst 1994;86(12):913-20, both references fully incorporated herein by this reference).

LNCaP (p53, wt) = assay: MTT cytotoxicity assay, LNCaP; format: cell-based; conditions: Homo sapiens, 96 hr
Description: as §1

DU145 (p53, mt) = assay: MTT cytotoxicity assay, DU145; format: cell-based; conditions: Homo sapiens, DU-145, 96 hr
Description: as §1

MCF-7 (p53, wt) = assay: MTT cytotoxicity assay, MCF-7; format: cell-based; conditions: Homo sapiens, MCF7
Description: as §1
(§2) In addition, the present inventors discovered that the compounds could also effectively kill human breast (MCF-7 and MDA435) and melanoma (A375) cells, as well as several lines of mouse tumor cells, with similar potencies (Table 1). Moreover, DL-001 could effectively kill endothelial cells derived from mouse lung and prostate (Table 1). Furthermore, it appears that tumor cells (LNCaP, MCF-7, and A375) that harbor the wildtype p53 tumor suppressor gene were relatively more sensitive to DL-001 (Table 1).

MDA435 (p53, mt) = assay: MTT cytotoxicity assay, MDA435; format: cell-based; conditions: Homo sapiens
Description: as §1, §2

A375 (p53, wt) = assay: MTT cytotoxicity assay, A375; format: cell-based; conditions: Homo sapiens, A-375
Description: as §1, §2

TRAMP (prostate) = assay: MTT cytotoxicity assay, TRAMP; format: cell-based; conditions: mouse cells
Description: as §1, §2

4T1 (breast) = assay: MTT cytotoxicity assay, 4T1; format: cell-based; conditions: mouse cells
Description: as §1, §2

B16 (melanoma) = assay: MTT cytotoxicity assay, B16; format: cell-based; conditions: mouse cells
Description: as §1, §2

UV2237 (fibrosarcoma) = assay: MTT cytotoxicity assay, UV2237; format: cell-based; conditions: mouse cells
Description: as §1, §2

CT-26 (colon) = assay: MTT cytotoxicity assay, CT-26; format: cell-based; conditions: CT26, mouse cells, parental
Description: as §1, §2

CT-26 (colon, MDR) = assay: MTT cytotoxicity assay, CT-26 MDR; format: cell-based; conditions: Mus musculus, CT26, multidrug resistant
Description: as §1, §2

[1] = system: mouse endothelial cells, lung; assay: MTT cytotoxicity assay, lung endothelial cells; format: cell-based; conditions: Endothelial cell
Description: as §1, §2

[2] = system: mouse endothelial cells, prostate; assay: MTT cytotoxicity assay, prostate endothelial cells; format: cell-based; conditions: Endothelial cell
Description: as §1, §2

caspase 2 = assay: Fluorometric caspase assay in PC-3MM2 cells, caspase 2; format: cell-based, human; conditions: 50 nM, 24 hr
Description: (§3) Taxol is known to kill tumor cells by inducing arrest of cells at […] cell cycle and apoptosis. To identify mechanisms by which DL-001 killed tumor cells, we compared effects of DL-001 and Taxol on PC-3MM2 cells. […] To verify the role of DL-001 in inducing apoptosis, the activity of caspase 2,3,6,8 and 9 was analyzed. PC-3MM2 cells are treated with 50 nM of DL-001, taxol, or vincristine for 24 hr. Caspase activities in the treated cells are assessed by using a fluorometric caspase assay kit (Bio Vision, Mountain View, Calif.).

caspase 3 = assay: Fluorometric caspase assay in PC-3MM2 cells, caspase 3; format: cell-based, human; conditions: 50 nM, 24 hr
Description: as §3

caspase 6 = assay: Fluorometric caspase assay in PC-3MM2 cells, caspase 6; format: cell-based, human; conditions: 50 nM, 24 hr
Description: as §3

caspase 8 = assay: Fluorometric caspase assay in PC-3MM2 cells, caspase 8; format: cell-based, human; conditions: 50 nM, 24 hr
Description: as §3

caspase 9 = assay: Fluorometric caspase assay in PC-3MM2 cells, caspase 9; format: cell-based, human; conditions: 50 nM, 24 hr
Description: as §3

PC-3MM2 tumors = assay: Orthotopic model of PC-3 human prostate cancer cells in nude mice; format: in vivo; conditions: for toxic side effects on mice: based on body weight and H & E-stained sections of heart, lung, liver, kidney, spleen
Description: PC-3MM2 cells are implanted into the prostate of nude mice. The therapy begins 3 days later, when tumors are established, by daily intraperitoneal injection of DL-001 at 10 mg/kg or 20 mg/kg of body weight or of DMSO (solvent). Experiments are terminated 3 weeks later.

PC-3MM2 cells = assay: Cell cycle and apoptosis in PC-3MM2 cells; format: cell-based, human
Description: as §3

SMILES	IC50 (PC-3 (p53, del))	IC50 (DU145 (p53, mt))	IC50 (CT-26 (colon))	IC50 (CT-26 (colon, MDR))	Fold change of caspase activity compared with that in control cells, caspase 2 (caspase 2)	Fold change of caspase activity compared with that in control cells, caspase 3 (caspase 3)	Fold change of caspase activity compared with that in control cells, caspase 6 (caspase 6)	Fold change of caspase activity compared with that in control cells, caspase 8 (caspase 8)	Fold change of caspase activity compared with that in control cells, caspase 9 (caspase 9)	toxic side effects on mice (PC-3MM2 tumors)	effect on cell cycle and apoptosis (PC-3MM2 cells)	also measured
COc1ccc(C(=O)c2cc([N+](=O)O)ccc2N2CCCCC2)cc1 (racemic) [DL-001, (4-Methoxy-phenyl)-(5-nitro-2-piperidin-1-yl-phenyl)-methanone]	32 nM	28 nM	39 nM	39 nM	17* fold	22 fold	1 fold	1 fold	4 fold	did not produce significant toxic side effects	arrested at S/G2 checkpoint of cell cycle and went into apoptosis	IC50 (LNCaP (p53, wt)): 11 nM; IC50 (MCF-7 (p53, wt)): 17 nM; IC50 (MDA435 (p53, mt)): 30 nM; IC50 (A375 (p53, wt)): 23 nM; IC50 (TRAMP (prostate)): 41 nM; IC50 (4T1 (breast)): 30 nM; IC50 (B16 (melanoma)): 26 nM; IC50 (UV2237 (fibrosarcoma)): 35 nM; IC50 [1]: 45 nM; IC50 [2]: 51 nM; growth of PC-3MM2 tumors in the prostate of nude mice (PC-3MM2 tumors; daily intraperitoneal injection, 10 mg/kg or 20 mg/kg (DL-001), from day 3, terminated 3 weeks later): inhibited growth of PC-3MM2 tumors in dose-dependent manner
COc1ccc(C(=O)c2cc([N+](=O)O)ccc2N2CCOCC2)cc1 (racemic) [DL-002, (4-Methoxy-phenyl)-(2-morpholin-4-yl-5-nitro-phenyl)-methanone]	30 nM	30 nM								did not produce significant toxic side effects		
CC(=O)O[C@H]1C(=O)[C@@]2(C)[C@H]([C@H](OC(=O)c3ccccc3)[C@]3(O)C[C@H](OC(=O)[C@H](O)[C@@H](NC(=O)c4ccccc4)c4ccccc4)C(C)=C1C3(C)C)[C@]1(OC(C)=O)CO[C@@H]1C[C@@H]2O [Taxol]	4 nM	3 nM	73 nM	367 nM	26 fold	34 fold	1 fold	1 fold	7 fold		arrested at S/G2 checkpoint of cell cycle and went into apoptosis	
CC[C@]1(O)C[C@H]2CN(CCc3c([nH]c4ccccc34)[C@@](C(=O)OC)(c3cc4c(cc3OC)N(C=O)[C@H]3[C@@](O)(C(=O)OC)[C@H](OC(C)=O)[C@]5(CC)C=CCN6CC[C@]43[C@@H]65)C2)C1 [Vincristine, vincristine]	4 nM	5 nM	16 nM	38 nM	18 fold	24 fold	1 fold	1 fold	4 fold			
